Holding throughout (test): […] release, TLC
Common to all, as to assay type: biochemical
Holding throughout (details): labelled compound; 1 mM ATP, 2 mM MgCl2, salmon sperm DNA, Tris-HCl pH 8.0, 37 °C

The target in experiment [1] is UvrD2 (MsmUvrD2), full-length (Mycolicibacterium smegmatis, UniProt A0QTT0).
For the next experiment, the target named is UvrD2-(1-630) (ΔHRDC) (Mycolicibacterium smegmatis, UniProt A0QTT0).
The target in experiment [2] is UvrD2 (MsmUvrD2), full-length (Mycolicibacterium smegmatis, UniProt A0QTT0, C614A/C617A).

As to `Nc1ncnc2c1ncn2[C@@H]1O[C@H](COP(=O)(O)OP(=O)(O)OP(=O)(O)O)[C@@H](O)[C@H]1O` [ATP], the “32Pi release, TLC” value in experiment [1] is listed as “The two proteins displayed virtually identical specific activity for ATP hydrolysis”; on UvrD2-(1-630) (ΔHRDC), “The two proteins displayed virtually identical specific activity for ATP hydrolysis”; in experiment [2] it was “The paired cysteine mutations had no deleterious effect on DNA-dependent ATPase specific activity”.

Values taken from article PMC2648833 (Biochemistry, 2008).
